For test [1], the system named is Cellular Release of Amyloid Peptide 1-40. The experiment in a line: Test 4: Inhibition of Cellular Release of Amyloid Peptide 1-40. The class given is cell-based, Chinese hamster. The following applies: Cricetulus griseus, 24 h; read-out: Amyloid-β1-40 release IC50. On the procedure: Chinese hamster ovary cells are transfected with the human gene for amyloid precursor protein. The cells are plated at a density of 8000 cells/well into 96-well microtiter plates and cultivated for 24 hours in DMEM cell culture medium containing 10% FCS. The test compound is added to the cells at various concentrations, and the cells are cultivated for 24 hours in the presence of the test compound. […] The potency of the compound is calculated from the percentage of inhibition of amyloid peptide release as a function of the test compound concentration.

The target of test [2] is Human BACE-1 (Homo sapiens, UniProt P56817). Put plainly: Test 1: Inhibition of Human BACE-1. The class given is biochemical. The following applies: mean IC50 values in Test 1; recombinant BACE-1, pH 4.5. The protocol: Test 1: Inhibition of Human BACE-1
IC50 values are calculated from percentage of inhibition of BACE-1 activity as a function of the test compound concentration.

From US20130281449A1, “Oxazine Derivatives and their Use in the Treatment of Neurological Disorders” (NOVARTIS AG, priority 2011, published 2013) come the findings set out here.

Structures are written as SMILES. Counter-ions that a name gives are not always drawn.

Sequence of Human BACE-1 (P56817 46-457 limits assumed): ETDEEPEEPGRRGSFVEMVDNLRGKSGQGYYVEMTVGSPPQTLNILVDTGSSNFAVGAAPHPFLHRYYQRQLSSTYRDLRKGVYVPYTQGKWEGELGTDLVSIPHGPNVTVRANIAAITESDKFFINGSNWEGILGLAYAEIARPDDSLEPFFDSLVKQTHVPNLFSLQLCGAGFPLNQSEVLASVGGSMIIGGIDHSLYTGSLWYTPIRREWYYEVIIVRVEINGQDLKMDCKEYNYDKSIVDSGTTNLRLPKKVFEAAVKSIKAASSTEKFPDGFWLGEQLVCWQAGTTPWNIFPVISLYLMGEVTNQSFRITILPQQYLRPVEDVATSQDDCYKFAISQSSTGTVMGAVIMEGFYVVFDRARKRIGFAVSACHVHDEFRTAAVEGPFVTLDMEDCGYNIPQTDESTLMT

Take `Cc1cc(C#N)cnc1C(=O)Nc1ccc(F)c([C@]2(CF)COC(CF)(CF)C(N)=N2)c1` [Example 42, 5-Cyano-3-methyl-pyridine-2-carboxylic acid [3-((R)-5-amino-3,6,6-tris-fluoromethyl-3,6-dihydro-2H-[1,4]oxazin-3-yl)-4-fluoro-phenyl]-amide]: the IC50 in test [1] worked out at 13 nM; in test [2], 12 nM.
As for `C[C@@]1(c2cc(NC(=O)c3ncc(Cl)cc3F)ccc2F)CO[C@@](C)(C(F)(F)F)C(N)=N1` [Example 21, 5-Chloro-3-fluoro-pyridine-2-carboxylic acid [3-((3R,6R)-5-amino-3,6-dimethyl-6-trifluoromethyl-3,6-dihydro2H-[1,4]oxazin-3-yl)-4-fluoro-phenyl]-amide hydrochloride], the IC50 in test [1] amounted to 9 nM; in test [2] it was 12 nM.
On the same counts, the results for `Cc1cc(C(F)F)cnc1C(=O)Nc1ccc(F)c([C@]2(C(F)F)COCC(N)=N2)c1` [Example 8, 5-Difluoromethyl-3-methyl-pyridine-2-carboxylic acid [3-((R)-5-amino-3-difluoromethyl-3,6-dihydro-2H-[1,4]oxazin-3-yl)-4-fluoro-phenyl]-amide hydrochloride] are 8 nM and 54 nM.
As for `C[C@@]1(c2cc(NC(=O)c3ncc(C#N)cc3Cl)ccc2F)CO[C@@](C)(C(F)(F)F)C(N)=N1` [Example 17, 3-Chloro-5-cyano-pyridine-2-carboxylic acid [3-((3R,6R)-5-amino-3,6-dimethyl-6-trifluoromethyl-3,6-dihydro-2H-[1,4]oxazin-3-yl)-4-fluoro-phenyl]-amide hydrochloride], the values for the IC50 in test [1] and in test [2] were 4 nM and 9 nM, respectively.
`Cc1cc(C#N)cnc1C(=O)Nc1ccc(F)c(C2(C)COC(CF)(CF)C(N)=N2)c1` (racemic) [Example 37, 5-Cyano-3-methyl-pyridine-2-carboxylic acid [3-(5-amino-6,6-bis-fluoromethyl-3-methyl-3,6-dihydro-2H-[1,4]oxazin-3-yl)-4-fluoro-phenyl]-amide]: in test [1], the IC50 stood at 4 nM.
For `[2H]C([2H])([2H])OC([2H])([2H])c1cc2c(Cl)c[nH]c2nc1C(=O)Nc1ccc(F)c([C@]2(C)CO[C@@](C)(C(F)(F)F)C(N)=N2)c1` [Example 33, 3-Chloro-5-trideuteromethoxy-dideuteromethyl-1H-pyrrolo[2,3-b]pyridine-6-carboxylic acid [3-((3R,6R)-5-amino-3,6-dimethyl-6-trifluoromethyl-3,6-dihydro-2H-[1,4]oxazin-3-yl)-4-fluoro-phenyl]-amide], the results for the IC50 in test [1] and in test [2] were 41 nM and 13 nM, respectively.
On to `Cc1cc(C(F)F)cnc1C(=O)Nc1ccc(F)c([C@]2(C)CO[C@@](C)(C(F)(F)F)C(N)=N2)c1` [Example 27, 5-Difluoromethyl-3-methyl-pyridine-2-carboxylic acid [3-((3R,6R)-5-amino-3,6-dimethyl-6-trifluoromethyl-3,6-dihydro-2H-[1,4]oxazin-3-yl)-4-fluoro-phenyl]-amide hydrochloride], for which the values for the IC50 in test [1] and in test [2] were 10 nM and 16 nM, respectively.
Regarding `Cc1nc(C(=O)Nc2ccc(F)c([C@]3(C)CO[C@@](C)(C(F)(F)F)C(N)=N3)c2)c(C)o1` [Example 23, 2,5-Dimethyl-oxazole-4-carboxylic acid [3-((3R,6R)-5-amino-3,6-dimethyl-6-trifluoromethyl-3,6-dihydro-2H-[1,4]oxazin-3-yl)-4-fluoro-phenyl]-amide hydrochloride], the IC50 in test [1] is 160 nM; in test [2], 67 nM.
As for `Cc1cc(OC(F)F)cnc1C(=O)Nc1ccc(F)c([C@]2(C)COC(CF)(CF)C(N)=N2)c1` [Example 40, 5-Difluoromethoxy-3-methyl-pyridine-2-carboxylic acid [3-((R)-5-amino-6,6-bis-fluoromethyl-3-methyl-3,6-dihydro-2H-[1,4]oxazin-3-yl)-4-fluoro-phenyl]-amide], the results for the IC50 in test [1] and in test [2] were 4 nM and 29 nM, respectively.
On the same counts, the results for `COc1ccc(C(=O)Nc2ccc(F)c([C@]3(C)CO[C@@](C)(C(F)(F)F)C(N)=N3)c2)c(N)n1` [Example 44, 2-Amino-N-[3-((3R,6R)-5-amino-3,6-dimethyl-6-trifluoromethyl-3,6-dihydro-2H-[1,4]oxazin-3-yl)-4-fluoro-phenyl]-6-methoxy-nicotinamide] are 79 nM and 220 nM.
For the compound `NC1=N[C@@](c2cc(NC(=O)c3ncc(C(F)F)nc3N)ccc2F)(C(F)F)COC1` [Example 6, 3-Amino-5-difluoromethyl-pyrazine-2-carboxylic acid [3-((R)-5-amino-3-difluoromethyl-3,6-dihydro-2H-[1,4]oxazin-3-yl)-4-fluoro-phenyl]-amide], the IC50 turned out to be 8 nM in test [1] and 25 nM in test [2].
On the same counts, the results for `COc1cnc(C(=O)Nc2ccc(F)c([C@]3(C)CO[C@@](C)(C(F)(F)F)C(N)=N3)c2)c(Cl)c1` [Example 18, 3-Chloro-5-methoxy-pyridine-2-carboxylic acid [3-((3R,6R)-5-amino-3,6-dimethyl-6-trifluoromethyl-3,6-dihydro-2H-[1,4]oxazin-3-yl)-4-fluoro-phenyl]-amide hydrochloride] are 9 nM and 20 nM.
Taken in the same sequence, the figures for `Cc1cc(Cl)cnc1C(=O)Nc1ccc(F)c([C@]2(C)CO[C@@](C)(C(F)(F)F)C(N)=N2)c1` [Example 20, 5-Chloro-3-methyl-pyridine-2-carboxylic acid [3-((3R,6R)-5-amino-3,6-dimethyl-6-trifluoromethyl-3,6-dihydro-2H-[1,4]oxazin-3-yl)-4-fluoro-phenyl]-amide hydrochloride] were 26 nM and 5 nM.
Taken in the same sequence, the figures for `COc1cnc(C(=O)Nc2ccc(F)c([C@]3(C(F)F)COCC(N)=N3)c2)c(C)c1` [Example 7, 5-Methoxy-3-methyl-pyridine-2-carboxylic acid [3-((R)-5-amino-3-difluoromethyl-3,6-dihydro-2H-[1,4]oxazin-3-yl)-4-fluoro-phenyl]-amide hydrochloride] were 11 nM and 130 nM.
On to `Cc1cc(OC(F)F)cnc1C(=O)Nc1ccc(F)c([C@]2(C)CO[C@@](C)(C(F)(F)F)C(N)=N2)c1` [Example 24, 5-Difluoromethoxy-3-methyl-pyridine-2-carboxylic acid [3-((3R,6R)-5-amino-3(6-dimethyl-6-trifluoromethyl-3,6-dihydro-2H-[1,4]oxazin-3-yl)-4-fluoro-phenyl]-amide hydrochloride], for which the half-maximal inhibitory concentration (IC50) was determined as 6 nM in test [1] and 14 nM in test [2].
Regarding `Cc1cc(F)cnc1C(=O)Nc1ccc(F)c([C@]2(C)CO[C@@](C)(C(F)(F)F)C(N)=N2)c1` [Example 35, 5-Fluoro-3-methyl-pyridine-2-carboxylic acid [3-((3R,6R)-5-amino-3,6-dimethyl-6-trifluoro-methyl-3,6-dihydro-2H-[1,4]oxazin-3-yl)-4-fluoro-phenyl]-amide], the IC50 in test [1] was 88 nM.
With `C[C@@]1(c2cc(NC(=O)c3ncc(C(F)F)cc3N)ccc2F)CO[C@@](C)(C(F)(F)F)C(N)=N1` [Example 29, 3-Amino-5-difluoromethyl-pyridine-2-carboxylic acid [3-((3R,6R)-5-amino-3,6-dimethyl-6-trifluoromethyl-3,6-dihydro-2H-[1,4]oxazin-3-yl)-4-fluoro-phenyl]-amide], the IC50 in test [1] came to 10 nM; in test [2], 14 nM.
Turning to `C[C@@]1(c2cc(NC(=O)c3ncc(C(F)F)cc3Cl)ccc2F)CO[C@@](C)(C(F)(F)F)C(N)=N1` [Example 32, 3-Chloro-5-difluormethyl-pyridine-2-carboxylic acid [3-((3R,6R)-5-amino-3,6-dimethyl-6-trifluoromethyl-3,6-dihydro-2H-[1,4]oxazin-3-yl)-4-fluoro-phenyl]-amide], the IC50 in test [1] was 11 nM; in test [2] it was 20 nM.
With `[2H]C([2H])([2H])Oc1cnc(C(=O)Nc2cc(F)c(F)c([C@]3(C(F)F)COCC(N)=N3)c2)c(Cl)c1` [Example 15, 3-Chloro-5-trideuteromethoxy-pyridine-2-carboxylic acid [3-((R)-5-amino-3-difluoromethyl-3,6-dihydro-2H-[1,4]oxazin-3-yl)-4,5-difluoro-phenyl]-amide], the IC50 in test [1] is 21 nM; in test [2], 32 nM.
Turning to `N#Cc1cnc(C(=O)Nc2ccc(F)c([C@]3(CF)COC(CF)(CF)C(N)=N3)c2)c(Cl)c1` [Example 43, 3-Chloro-5-cyano-pyridine-2-carboxylic acid [3-((R)-5-amino-3,6,6-tris-fluoromethyl-3,6-dihydro-2H-[1,4]oxazin-3-yl)-4-fluoro-phenyl]-amide], the figures for the IC50 in test [1] and in test [2] were 22 nM and 24 nM, respectively.
On the same counts, the results for `[2H]C([2H])([2H])Oc1cnc(C(=O)Nc2ccc(F)c([C@]3(C)CO[C@@](C)(C(F)(F)F)C(N)=N3)c2)c(C)c1` [Example 36, 5-Trideuteromethoxy-3-methyl-pyridine-2-carboxylic acid [3-((3R,6R)-5-amino-3,6-dimethyl-6-trifluoromethyl-3,6-dihydro-2H-[1,4]oxazin-3-yl)-4-fluoro-phenyl]-amide] are 18 nM and 28 nM.
Regarding `[2H]C([2H])([2H])Oc1cnc(C(=O)Nc2ccc(F)c([C@]3(C(F)F)COCC(N)=N3)c2)c(C)c1` [Example 13, 5-Trideuteromethoxy-3-methyl-pyridine-2-carboxylic acid [3-((R)-5-amino-3-difluoromethyl-3,6-dihydro-2H-[1,4]oxazin-3-yl)-4-fluoro-phenyl]-amide], the IC50 amounted to 22 nM in test [1] and 110 nM in test [2].

As a reminder, the IC50 is the concentration that gives 50% inhibition.
